Results filed as inconclusive are left out. Active and inactive are the calls of the source. How the calls were made is not given here.
tested on: HEK293 viability counterscreen, plate reader; assay: cytotoxicity in HEK293 background cells – cell-based, dry powder, set 2, counter-screen for EBV LMP1 inhibitor project, dose response (AID 624374)

Question: Which AC35 does the source give for `CC(C)(C)[S@@](=O)N1Cc2cc(C(=O)NCc3ccccc3F)nc(-c3cccc(-c4ccncc4)c3)c2[C@H]1CCO` here?
Answer: > 35 µM (inactive)

Question: How did the AC35 turn out when `O=C(C[C@@H]1C[C@@H]2c3cc(NS(=O)(=O)c4ccc(F)cc4)ccc3O[C@@H]2[C@@H](CO)O1)NCc1ccc(Oc2ccccc2)cc1` was run?
Answer: 20.8 µM

Question: Which AC35 does the source give for `COc1ccccc1CNC(=O)C[C@@H]1C[C@H]2c3cc(NC(=O)c4ccc5c(c4)OCO5)ccc3O[C@H]2[C@H](CO)O1` here?
Answer: > 35 µM (inactive)

Question: With `Cc1cc(C(=O)Nc2ccc3c(c2)C(=O)N(C)[C@@H]2CC[C@@H](CC(=O)NCc4ccc(-c5ccccc5)cc4)O[C@H]2CO3)no1` as the compound, how does the AC35 read?
Answer: > 35 µM (inactive)
